Several values for one entry are separate records, joined by “and”; a condition that tells them apart may be missing. Equal values may be shown once. Inconclusive results and toxic doses are left out.
Test system: BDF1 mice, P388 leukemia ip, median survival T/C
Test: NCI In Vivo Anticancer Drug Screen. Data for tumor model P388 Leukemia (intraperitoneal) in B6D2F1 (BDF1) mice
Conditions: endpoint: median survival time, higher = longer survival
In short: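 Survival ratio, drug arm over vehicle arm, in mice with a transplanted tumour.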

[1] = dose: 50.0 mg/kg/injection, schedule: Q01DX009 (ip), vehicle: saline with Tween-80
[2] = dose: 100.0 mg/kg/injection, schedule: Q01DX009 (ip), vehicle: saline with Tween-80
[3] = dose: 200.0 mg/kg/injection, schedule: Q01DX009 (ip), vehicle: saline with Tween-80
[4] = dose: 50.0 mg/kg/injection, schedule: Q01DX009 (ip), vehicle: Klucel (hydroxypropylcellulose) (HPC)
[5] = dose: 100.0 mg/kg/injection, schedule: Q01DX009 (ip), vehicle: Klucel (hydroxypropylcellulose) (HPC)
[6] = dose: 25.0 mg/kg/injection, schedule: Q01DX009 (ip), vehicle: saline
[7] = dose: 50.0 mg/kg/injection, schedule: Q01DX009 (ip), vehicle: saline
[8] = dose: 25.0 mg/kg/injection, schedule: Q01DX009 (ip), vehicle: saline with Tween-80
[9] = dose: 50.0 mg/kg/injection, schedule: Q04DX003 (ip), vehicle: saline with Tween-80
[10] = dose: 100.0 mg/kg/injection, schedule: Q04DX003 (ip), vehicle: saline with Tween-80
[11] = dose: 200.0 mg/kg/injection, schedule: Q01DX009 (ip), vehicle: Klucel (hydroxypropylcellulose) (HPC)
[12] = dose: 25.0 mg/kg/injection, schedule: Q04DX003 (ip), vehicle: saline with Tween-80
[13] = dose: 6.25 mg/kg/injection, schedule: Q04DX003 (ip), vehicle: saline with Tween-80

NC(Cc1c[nH]c2cc(N(CCCl)CCCl)ccc12)C(=O)O (stereo not drawn)
T/C (dose: 0.75 mg/kg/injection, schedule: Q01DX009 (sc), vehicle: olive oil, sesame oil, peanut oil): 115 % of control | T/C (dose: 1.5 mg/kg/injection, schedule: Q01DX009 (sc), vehicle: olive oil, sesame oil, peanut oil): 123 % of control | T/C (dose: 1.5 mg/kg/injection, schedule: Q04DX003 (sc), vehicle: olive oil, sesame oil, peanut oil): 113 % of control | T/C (dose: 3.0 mg/kg/injection, schedule: Q01DX009 (sc), vehicle: olive oil, sesame oil, peanut oil): 100 % of control | T/C (dose: 3.0 mg/kg/injection, schedule: Q04DX003 (sc), vehicle: olive oil, sesame oil, peanut oil): 177 % of control | T/C (dose: 4.5 mg/kg/injection, schedule: Q04DX003 (sc), vehicle: olive oil, sesame oil, peanut oil): 162 % of control | T/C (dose: 6.0 mg/kg/injection, schedule: Q04DX003 (sc), vehicle: olive oil, sesame oil, peanut oil): 154 % of control

O=C1CCC([N+](=O)[O-])C(c2ccccc2Cl)N1 (stereo not drawn)
T/C [1]: 99 % of control | T/C [2]: 86 % of control | T/C [3]: 94 % of control

N#Cc1ccc(S(N)(=O)=O)cc1
T/C (dose: 12.5 mg/kg/injection, schedule: Q04DX003 (ip), vehicle: Klucel (hydroxypropylcellulose) (HPC)): 109 % of control | T/C (dose: 25.0 mg/kg/injection, schedule: Q01DX009 (ip), vehicle: Klucel (hydroxypropylcellulose) (HPC)): 111 % of control | T/C (dose: 25.0 mg/kg/injection, schedule: Q04DX003 (ip), vehicle: Klucel (hydroxypropylcellulose) (HPC)): 109 % of control | T/C [4]: 111 % of control | T/C [1]: 100 % of control | T/C (dose: 50.0 mg/kg/injection, schedule: Q04DX003 (ip), vehicle: Klucel (hydroxypropylcellulose) (HPC)): 104 % of control | T/C [5]: 111 % of control

C=C1C(=O)OC2CC3(C)CC(O)C(OC(C)=O)C(=C)C3CC12 (stereo not drawn)
T/C [6]: 104 % of control | T/C [7]: 101 % of control

CC(CO)(CI)[n+]1ccccc1 (stereo not drawn)
T/C [8]: 103 % of control | T/C [1]: 107 % of control | T/C [9]: 95 % of control | T/C [10]: 100 % of control

Cc1ccc(C2NC(=O)c3ccccc3N2)c(C)c1 (stereo not drawn)
T/C [5]: 110 % of control | T/C [11]: 110 % of control | T/C (dose: 400.0 mg/kg/injection, schedule: Q01DX009 (ip), vehicle: Klucel (hydroxypropylcellulose) (HPC)): 120 % of control

C=C1C(c2ccccc2)C(c2ccccc2)=C(C)C(c2ccccc2)=CN1C(=O)c1ccccc1 (stereo not drawn)
T/C [4]: 97 % of control | T/C [5]: 88 % of control | T/C [11]: 95 % of control

NC(=O)c1c(Br)n(C2OC(CO)C(O)C2O)c2ncnc(N)c12 (stereo not drawn)
T/C [7]: 95 % of control

CC1CCC(C)N1P(=O)(N1CC1)N1CC1 (stereo not drawn)
T/C (dose: 16.5 mg/kg/injection, schedule: Q04DX003 (ip), vehicle: saline with Tween-80): 168 % of control and 183 % of control | T/C [12]: 120 % of control and 218 % of control

O=Cc1c2ccc(Cl)cc2nc2ccc(Cl)cc12
T/C (dose: 100.0 mg/kg/injection, schedule: Q01DX001 (ip), vehicle: saline with Tween-80): 100 % of control | T/C (dose: 200.0 mg/kg/injection, schedule: Q01DX001 (ip), vehicle: saline with Tween-80): 100 % of control | T/C (dose: 400.0 mg/kg/injection, schedule: Q01DX001 (ip), vehicle: saline with Tween-80): 100 % of control

Cc1[nH]c(=O)[nH]c(=O)c1I
T/C [1]: 105 % of control | T/C [2]: 99 % of control | T/C [3]: 101 % of control

O=C1NC(c2ccccc2)C(=O)N1CCN(CCCl)CCCl (stereo not drawn)
T/C (dose: 1.56 mg/kg/injection, schedule: Q01DX009 (ip), vehicle: saline): 114 % of control | T/C (dose: 3.12 mg/kg/injection, schedule: Q01DX009 (ip), vehicle: saline): 105 % of control | T/C [6]: 201 % of control

O=C(NCCN1CC1)C(=O)NCCN1CC1
T/C (dose: 1.56 mg/kg/injection, schedule: Q04DX003 (ip), vehicle: saline with Tween-80): 250 % of control | T/C (dose: 3.12 mg/kg/injection, schedule: Q04DX003 (ip), vehicle: saline with Tween-80): 173 % of control | T/C [13]: 105 % of control

COC(=O)/C=C/c1c[nH]c2nccnc12
T/C (dose: 25.0 mg/kg/injection, schedule: Q01DX009 (ip), vehicle: water): 104 % of control | T/C (dose: 50.0 mg/kg/injection, schedule: Q01DX009 (ip), vehicle: water): 90 % of control and 112 % of control | T/C (dose: 100.0 mg/kg/injection, schedule: Q01DX009 (ip), vehicle: water): 97 % of control and 109 % of control | T/C (dose: 100.0 mg/kg/injection, schedule: Q04DX003 (ip), vehicle: water): 86 % of control | T/C (dose: 200.0 mg/kg/injection, schedule: Q01DX009 (ip), vehicle: water): 115 % of control | T/C (dose: 200.0 mg/kg/injection, schedule: Q04DX003 (ip), vehicle: water): 102 % of control | T/C (dose: 300.0 mg/kg/injection, schedule: Q01DX009 (ip), vehicle: water): 106 % of control | T/C (dose: 400.0 mg/kg/injection, schedule: Q01DX009 (ip), vehicle: water): 93 % of control | T/C (dose: 400.0 mg/kg/injection, schedule: Q04DX003 (ip), vehicle: water): 102 % of control

CC1(C)N=C(N)N=C(N)N1c1cccc(CCCCc2ccc(Cl)c(S(=O)(=O)F)c2)c1
T/C (dose: 1.8 mg/kg/injection, schedule: Q01DX009 (ip), vehicle: saline): 100 % of control | T/C (dose: 3.13 mg/kg/injection, schedule: Q01DX009 (ip), vehicle: saline): 112 % of control | T/C (dose: 4.0 mg/kg/injection, schedule: Q01DX009 (ip), vehicle: saline): 114 % of control | T/C (dose: 6.0 mg/kg/injection, schedule: Q01DX009 (ip), vehicle: saline): 122 % of control | T/C (dose: 7.0 mg/kg/injection, schedule: Q04DX003 (ip), vehicle: saline): 109 % of control | T/C (dose: 9.0 mg/kg/injection, schedule: Q01DX009 (ip), vehicle: saline): 107 % of control | T/C (dose: 12.5 mg/kg/injection, schedule: Q01DX009 (ip), vehicle: saline): 120 % of control | T/C (dose: 14.0 mg/kg/injection, schedule: Q01DX009 (ip), vehicle: saline): 150 % of control | T/C (dose: 14.0 mg/kg/injection, schedule: Q04DX003 (ip), vehicle: saline): 118 % of control | T/C (dose: 28.0 mg/kg/injection, schedule: Q04DX003 (ip), vehicle: saline): 118 % of control | T/C (dose: 56.0 mg/kg/injection, schedule: Q04DX003 (ip), vehicle: saline): 104 % of control

CCCCCCCCSP(=S)(N1CC1)N1CC1
T/C [2]: 90 % of control | T/C [10]: 88 % of control | T/C [3]: 100 % of control | T/C (dose: 200.0 mg/kg/injection, schedule: Q04DX003 (ip), vehicle: saline with Tween-80): 94 % of control | T/C (dose: 400.0 mg/kg/injection, schedule: Q01DX009 (ip), vehicle: saline with Tween-80): 95 % of control | T/C (dose: 400.0 mg/kg/injection, schedule: Q04DX003 (ip), vehicle: saline with Tween-80): 88 % of control

Clc1ccc(-c2cc(=[N+]3CCCCC3)ss2)cc1
T/C [13]: 92 % of control | T/C (dose: 12.5 mg/kg/injection, schedule: Q04DX003 (ip), vehicle: saline with Tween-80): 102 % of control and 103 % of control | T/C [8]: 110 % of control | T/C [12]: 93 % of control and 94 % of control | T/C [1]: 110 % of control | T/C [9]: 98 % of control and 99 % of control and 119 % of control | T/C [10]: 100 % of control and 102 % of control and 114 % of control

CS(=O)(=O)c1nc(N)nc2nc[nH]c12
T/C (dose: 75.0 mg/kg/injection, schedule: Q04DX003 (ip), vehicle: saline): 104 % of control | T/C (dose: 100.0 mg/kg/injection, schedule: Q01DX009 (ip), vehicle: saline): 115 % of control | T/C (dose: 150.0 mg/kg/injection, schedule: Q04DX003 (ip), vehicle: saline): 100 % of control | T/C (dose: 200.0 mg/kg/injection, schedule: Q01DX009 (ip), vehicle: saline): 105 % of control | T/C (dose: 300.0 mg/kg/injection, schedule: Q04DX003 (ip), vehicle: saline): 109 % of control

CCOc1ccc(OCC)c2c1C(=O)c1ccccc1C2=O
T/C (dose: 100.0 mg/kg/injection, schedule: Q04DX003 (ip), vehicle: Klucel (hydroxypropylcellulose) (HPC)): 100 % of control | T/C (dose: 200.0 mg/kg/injection, schedule: Q04DX003 (ip), vehicle: Klucel (hydroxypropylcellulose) (HPC)): 105 % of control | T/C (dose: 400.0 mg/kg/injection, schedule: Q04DX003 (ip), vehicle: Klucel (hydroxypropylcellulose) (HPC)): 111 % of control

Cn1ncc2c(NCCc3ccccc3)ncnc21
T/C [8]: 100 % of control | T/C [1]: 100 % of control

COc1cccn(C/C=C(\C)CCC=C(C)C)c1=O
T/C [8]: 116 % of control | T/C [1]: 109 % of control | T/C [9]: 91 % of control | T/C (dose: 80.0 mg/kg/injection, schedule: Q01DX009 (ip), vehicle: saline with Tween-80): 93 % of control | T/C [10]: 100 % of control | T/C (dose: 150.0 mg/kg/injection, schedule: Q01DX009 (ip), vehicle: saline with Tween-80): 116 % of control
